Test results reported in patent US5811398A, “Platelet aggregation inhibitors containing C-terminal aminergic side chain amino acid residues” (G. D. Searle & Co., priority 1995, dated 1998).

System: ADP-induced platelet aggregation in dog platelet-rich plasma (PRP)
Assay: In-Vitro Platelet Aggregation in PRP
Type: cell-based
Details: aggregation induced by ADP (50 μm final concentration), 1 minute preincubation at 37° C.
Method: In-Vitro Platelet Aggregation in PRP
Healthy male or female dogs were fasted for 8 hours prior to drawing blood; then 30 ml whole blood was collected using a butterfly needle and 30 cc plastic syringe with 3 ml of 0.129M buffered sodium citrate (3.8%). The syringe was rotated carefully as blood was drawn to mix the citrate. Platelet-rich plasma (PRP) was prepared by centrifugation at 975×g for 3.17 minutes at room temperature, allowing the centrifuge to coast to a stop without braking. The PRP was removed from the blood with a plastic pipette and placed in a plastic capped, 50 ml Corning conical sterile centrifuge tube which was held at room temperature. Platelet poor plasma (PPP) was prepared by centrifuging the remaining blood at 2000×g for 15 minutes at room temperature allowing the centrifuge to coast to a stop without braking. The PRP was adjusted with PPP to a count of 2-3×10^8 platelets per ml. 400 μl of the PRP preparation and 50 μl of the compound to be tested or saline were preincubated for 1 minute at 37° C. in a BioData aggregometer (BioData, Horsham, Pa.). 50 μl of adenosine 5'-diphosphate (ADP) (50 μm final concentration) was added to the cuvettes and the aggregation was monitored for 1 minute. […] Results are calculated as follows: [formula]
The assay results for the compound of Example 1 and its median inhibitory concentration (IC50) is recorded in Table I.

Question: How did the IC50 turn out when `N=C(N)c1ccc(NC(=O)CCC(=O)N[C@@H](CC(=O)O)C(=O)N[C@@H](CCCCN)C(=O)O)cc1` [Example 1, N-[4-[[4-(aminoiminomethyl)phenyl]amino]-1,4-dioxobutyl]-L-aspartyl]-L-lysine bistrifluoroacetate] was run?
Answer: 180 nM
